Test results taken from patent US20130133245A1, “OXYGENATE ADDITIVE FOR INTERNAL COMBUSTION ENGINE FUEL, FUEL COMPOSITION COMPRISING THE SAME AND IMPROVED PROCESS FOR PRODUCING HIGHLY METHYLATED GLYCEROL ETHERS” (priority 2011, published 2013).

Key:
[1] = Lower flammability limit
[2] = Density of oxygenate additive (main properties comparison)
[3] = Lower heating value
[4] = Heat of combustion
[5] = Flash point
[6] = Solubility in gasoline or aviation turbine fuel; type: physicochemical
[7] = Solubility / miscibility in diesel fuel; type: physicochemical

COCCOCCOC [DGM, diethylene glycol dimethyl ether]
Lower flammability limit [1]: 1.2 % vol | Density [2]: 937 kg/m^3 | Lower heating value [3]: 24.5 kJ/g | Heat of combustion [4]: -2.52e+07 J/kg | Flash point [5]: 70 °C

COCC(COC)OC [GTME, glycerol trimethyl ether]
dissolution in gasoline or aviation turbine fuel [6]: completely dissolved | solubility in diesel fuel ([7]; diesel fuel): ~100%

glycerol dimethyl ethers [GDMEs]
miscibility with diesel fuel ([7]; too much amount mixed with diesel fuel): phase separation
